Key:
Assay type in all cases: physicochemical
[1] = Crystallinity by X-ray powder diffractometry (XRPD) relative to a reference material; conditions: relative to reference sample
Protocol: The crystallinity is determined by means of X-ray powder diffractometry (XRPD) (apparatus: Siemens D8, fixed sample position). After background correction the integral intensities in the X-ray diffractogram are compared with those of a reference material. This reference material can for example be a conventional precipitation product or a product according to a different production method with known crystallinity and granulation. Thus the crystallinity is a relative value which characterizes the degree of order compared with a reference sample. The relationship of the integral reflex intensities of particle sample and reference sample is therefore the quantitative expression of its difference in crystallinity.

[2] = Particle size distribution by laser diffraction, wet measurement (Malvern Mastersizer E); conditions: for d50 / d90 / d10: dried product, laser diffraction wet measurement; for d50: average particle size; for d10: vol.-%; for span: span=(d90−d10)/d50
Protocol: The particle size and the particle size distribution (grain-size distribution) are determined with the help of a customary laser diffraction in a wet measurement which delivers a distribution curve of the particle sizes (Malvern System, Mastersizer E, wet measurement in the cuvette). dx means that x volume percent (vol.-%) of the particles have a diameter which is smaller than the given value. With a d50 value of 1 μm 50 vol.-% of the particles thus have a diameter of less than 1 μm (micrometer). The d50 value is a measure of the average (volume average) particle diameter and is therefore also called average particle diameter. With a d10 of 15 μm and a d90 of 50 μm 10 vol.-% of the particles have a diameter of less than 15 μm and 90 vol.-% of the particles have a diameter of less than 50 μm.
Sample preparation for wet measurement of the particle size and particle size distribution: 12.5 mg sample is dispersed in 25 ml aqueous surfactant solution (0.1% Tween 80 in water, saturated with active ingredient and filtered over a 0.2 μm filter) by means of ultrasound sonotrode (Hielscher, d=7 mm, 30% output) for 4 min. The thus-obtained suspension is added dropwise, accompanied by stirring, to the measuring vessel which contains filtered surfactant solution, until the obscuration (clouding) reaches 10% and the particle size distribution is determined by the above-described laser diffraction. An average value is determined from five measurements.
An advantage of the method according to embodiments of the invention is the generation of a very narrow particle size distribution. Additionally, largely agglomerate-free particles are obtained. This is achieved by the synchronous counterrotation of destructive grinding and ultrasound processes on the one hand and constructive crystal growth on the other hand. In the region of coarse grain sizes and agglomerates, above all the disintegration effect (grinding process and ultrasound) acts primarily in the direction of a reduction, and in the fine-grain region the crystal growth acts in the direction of an increase in the particle size. Thus, very narrow particle size distributions are achieved. The width of a particle size distribution (span) is defined as follows: span=(d90−d10)/d50.

[3] = Agglomeration factor: d90 (Ultra Turrax stirrer) / d90 (ultrasound sonotrode); conditions: d90(agglomerated particles)/d90(non-agglomerated particles)
From the text: The degree of agglomeration of the crystallized active ingredient particles is described by the agglomeration factor (AGF). This is defined by the quotient of the diameter of the agglomerated particles and of the diameter of the non-agglomerated particles. This method is most informative for agglomeration when comparing the d90 values. The agglomeration factor within the meaning of the present invention is therefore defined as follows: Agglomeration factor=d90(agglomerated particles)/d90(non-agglomerated particles)
These two d90 values are determined by different energy input into the sample to be tested.
With a high input of energy, existing agglomerates decompose and the following particle size measurement delivers the d90 of the non-agglomerated particles. […]
With a low energy input on the other hand agglomerates are largely spared and the following particle size measurement delivers the d90(agglomerated particles). […] The thus-obtained suspension is added dropwise accompanied by stirring to the measuring vessel which contains filtered surfactant solution, until the obscuration reaches 10% and the particle size distribution is determined by the above-described laser diffraction. An average value is determined from five measurements. […]

Row | crystallinity [1] [%] | d50 [2] [μm] | d90 [2] [μm] | d10 [2] [μm] | span [2] | AGF (agglomeration factor) [3] | SMILES
1 | 100 | 34 | 64 | 12 | 1.5 | 1.3 | CC(=O)[C@H]1CC[C@H]2[C@@H]3CCC4=CC(=O)CC[C@]4(C)[C@H]3CC[C@]12C [Example 1, progesterone]
2 | 100 | 26 | 45 | 10 | 1.3 | 1.1 | CC(=O)[C@H]1CC[C@H]2[C@@H]3CCC4=CC(=O)CC[C@]4(C)[C@H]3CC[C@]12C [Example 2, progesterone]
